Columns and labels:
rDdGSTA2 = target: T1, rDdGSTA2 (Dictyostelium discoideum, UniProt Q556G3); test: CDNB conjugation, absorbance at […] nm, Michaelis-Menten fit; assay type: biochemical; conditions: saturating GSH; pH 7.5; 25°C
T1 construct: gene gsta2-1
T1 sequence (Q556G3 1-198): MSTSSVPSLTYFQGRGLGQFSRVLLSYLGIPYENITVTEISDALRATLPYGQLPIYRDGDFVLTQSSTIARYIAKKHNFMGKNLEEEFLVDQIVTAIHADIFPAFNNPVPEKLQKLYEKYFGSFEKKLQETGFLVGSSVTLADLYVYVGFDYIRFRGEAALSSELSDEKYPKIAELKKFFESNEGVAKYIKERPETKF

rDdGSTA3 = target: T2, rDdGSTA3 (Dictyostelium discoideum, UniProt Q54VI4); test: as above; assay type: biochemical; conditions: saturating GSH; pH 7.5; 25°C
T2 construct: gene gsta3
T2 sequence (Q54VI4 1-204): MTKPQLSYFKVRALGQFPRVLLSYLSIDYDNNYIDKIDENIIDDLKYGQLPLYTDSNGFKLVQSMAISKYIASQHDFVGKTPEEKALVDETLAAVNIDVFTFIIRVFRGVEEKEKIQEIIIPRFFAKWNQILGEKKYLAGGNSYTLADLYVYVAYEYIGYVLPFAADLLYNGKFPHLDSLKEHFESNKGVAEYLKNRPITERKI

O=[N+]([O-])c1ccc(Cl)c([N+](=O)[O-])c1 [CDNB, 1-chloro-2,4-dinitrobenzene]
Km (rDdGSTA2): 1290 ± 200 µM | Km (rDdGSTA3): 562 ± 98.1 µM

From article PMC8081208, “Characterization of glutathione S-transferase enzymes in Dictyostelium discoideum suggests a functional role for the GSTA2 isozyme in cell proliferation and development” (PLoS ONE, 2021)
